Experimental findings from patent US20080220446A1, “Method for Detecting and/or Removing Protein and/or Peptide Comprising a Cross-Beta Structure From an Aqueous Solution Comprising a Protein” (priority 2005, published 2008) are described below.

Where “and” joins values, the source holds several entries; their conditions need not be identical. Equal values may be shown once.

Data set [1] is described as follows: Congo red fluorescence of protein solutions. Type of data set: physicochemical. The method, then: Background signals from buffer, buffer with Congo red and protein/peptide solution without Congo red were subtracted from corresponding measurements with protein solution incubated with Congo red. Fluorescence was measured in triplicate on a Hitachi F-4500 fluorescence spectrophotometer (Ltd., Tokyo, Japan).
(§1) Formulated protein therapeutics were obtained from the local hospital pharmacy and were used as supplied by the manufacturers. […] Lyophilized therapeutics were dissolved according to the manufacturers recommendations. GH, zinc-insulin, Cealb and gelatin were stored at −20, 4, room temperature, 37 and 65° C. Other protein therapeutics were only kept at 4° C., and assayed for the presence of cross-β structure at shown time points. Enhancement in fluorescence of ThT and Congo red was measured with all formulated protein therapeutics. For this purpose, proteins were diluted to the indicated concentrations. […] Zinc-insulin was diluted tenfold in the activation assay, GH was diluted to a final concentration of 500 μg ml^−1. Activation of factor XII and prekallikrein by the therapeutics was tested in the chromogenic factor XII assay (see above). […] After coating, plates were blocked with Blocking Reagent (Roche Diagnostics, Almere, The Netherlands).

Another data set has as its target T1, factor XII (Homo sapiens, UniProt P00748).
T1 construct: purified human factor XII from plasma (Calbiochem); purchased Calbiochem; host or cells: human plasma
T1 sequence (P00748 20-615): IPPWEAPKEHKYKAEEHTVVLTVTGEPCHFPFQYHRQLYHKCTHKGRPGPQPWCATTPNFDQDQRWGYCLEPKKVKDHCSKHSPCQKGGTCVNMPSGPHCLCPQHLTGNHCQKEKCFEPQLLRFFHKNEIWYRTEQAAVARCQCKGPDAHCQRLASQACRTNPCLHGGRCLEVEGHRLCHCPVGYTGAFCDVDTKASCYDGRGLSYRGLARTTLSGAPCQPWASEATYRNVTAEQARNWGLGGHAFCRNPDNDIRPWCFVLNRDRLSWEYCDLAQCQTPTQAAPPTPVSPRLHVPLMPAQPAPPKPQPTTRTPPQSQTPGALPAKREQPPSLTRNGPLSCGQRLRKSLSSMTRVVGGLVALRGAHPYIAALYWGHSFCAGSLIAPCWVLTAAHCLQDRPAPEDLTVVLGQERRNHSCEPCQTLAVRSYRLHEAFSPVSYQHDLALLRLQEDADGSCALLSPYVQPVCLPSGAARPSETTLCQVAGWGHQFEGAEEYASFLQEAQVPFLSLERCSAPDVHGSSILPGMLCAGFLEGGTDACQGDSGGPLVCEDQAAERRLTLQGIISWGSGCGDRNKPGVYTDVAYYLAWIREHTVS
Kind of data set: Factor XII / prekallikrein activation assay (Chromozym-PK). It is filed as biochemical. The method, then:
Plasmin (Pls) activity was assayed as described^16. Peptides and proteins that were tested for their stimulatory ability were regularly used at 100 μg ml^−1. […] Chromogenic substrate S-2251 (Chromogenix, Instrumentation Laboratory SpA, Milano, Italy) was used to measure Pls activity. Conversion of zymogen factor XII (#233490, Calbiochem, EMD Biosciences, Inc., San Diego, Calif.) to proteolytically active factor XII (factor XIIa) was assayed by measurement of the conversion of chromogenic substrate Chromozym-PK (Roche Diagnostics, Almere, The Netherlands) by kallikrein. Chromozym-PK was used at a concentration of 0.3 mM. Factor XII, human plasma prekallikrein (#529583, Calbiochem) and human plasma cofactor high-molecular weight kininogen (#422686, Calbiochem) were used at concentrations of 1 μg ml^−1. […] Assays were performed using microtiter plates (Costar, Cambridge, Mass., USA). Peptides and proteins were tested for their ability to activate factor XII. […] The conversion of Chromozym-PK was recorded kinetically at 37° C. for at least 60 minutes. […]
Formulated protein therapeutics were obtained from the local hospital pharmacy and were used as supplied by the manufacturers. […] Enhancement in fluorescence of ThT and Congo red was measured with all formulated protein therapeutics. […]

Data set [2] has as its target T2, tPA (Homo sapiens, UniProt P00750). As to the kind of experiment: tPA ELISA with coated protein therapeutics. Type of data set: binding. The following applies: ELISA, stored at the recommended temperature of 4° C. The method, then: as §1
The target of data set [3] is T3, LRP cl-IV binding to BSA-AGE (Bos taurus, UniProt P02769).
T3 construct: made in house; host or cells: HEK293E/S (LRP cl-IV, culture supernatant)
Kind of data set: ELISA, interference with LRP cl-IV binding to BSA-AGE. Also on record: species or system human. To be noted: concentration series, 50 times diluted LRP cl-IV medium. The procedure: To test whether amyloid-like crossbeta structure binding compounds tPA, Congo red, Thioflavin T and Thioflavin S interfere with LRP cl-IV binding to BSA-AGE, concentration series of the potential inhibitory amyloid binding moieties were tested in the presence of 50 times diluted medium containing LRP cl-IV. The following inhibitors were used: tPA, Congo red, Thioflavin T (ThT) and Thioflavin S (ThS). As a control to tPA, K2P tPA, which lacks the amyloid-like misfolded protein binding finger domain, was included in the analyses. The influence of tPA and K2P tPA was tested in the presence of 10 mM ε-amino caproic acid to avoid binding of the kringle2 domain of tPA and K2P tPA to lysine- and arginine residues. Binding buffer and K2P tPA serve as negative controls in these inhibition studies. The concentration series was measured in triplicate, the values averaged and standard deviations calculated. Background signals obtained with buffer-coated wells were subtracted. Signals obtained with binding of LRP cluster IV to BSA-AGE was set arbitrarily to a reference binding of 100% and signals obtained with the concentration series of misfolded protein binding moieties and K2P tPA were calculated based on this set reference.

In data set [4] the target is T2, tPA. As to the kind of experiment: Plasminogen-activation assay (tPA activation, S-2251). Type of data set: biochemical. The following applies: 100 μg ml^−1. The method, then:
Plasmin (Pls) activity was assayed as described^16. Peptides and proteins that were tested for their stimulatory ability were regularly used at 100 μg ml^−1. […] Chromogenic substrate S-2251 (Chromogenix, Instrumentation Laboratory SpA, Milano, Italy) was used to measure Pls activity. Conversion of zymogen factor XII (#233490, Calbiochem, EMD Biosciences, Inc., San Diego, Calif.) to proteolytically active factor XII (factor XIIa) was assayed by measurement of the conversion of chromogenic substrate Chromozym-PK (Roche Diagnostics, Almere, The Netherlands) by kallikrein. Chromozym-PK was used at a concentration of 0.3 mM. Factor XII, human plasma prekallikrein (#529583, Calbiochem) and human plasma cofactor high-molecular weight kininogen (#422686, Calbiochem) were used at concentrations of 1 μg ml^−1. […] Assays were performed using microtiter plates (Costar, Cambridge, Mass., USA). Peptides and proteins were tested for their ability to activate factor XII. 150 μg ml^−1 kaolin, an established activator of factor XII was used as positive control and solvent (H2O) as negative control. The conversion of Chromozym-PK was recorded kinetically at 37° C. for at least 60 minutes. Assays were done in duplicate.
as §1
To prepare structurally altered ovalbumin (OVA) with amyloid cross-β structures, purified OVA (Sigma, A-7641, lot 071k7094) was heated to 85° C. One mg ml^−1 OVA in 67 mM NaPi buffer pH 7.0, 100 mM NaCl, was heated for two cycles in PCR cups in a PTC-200 thermal cycler (MJ Research, Inc., Waltham, Mass., USA). In each cycle, OVA was heated from 30 to 85° C. at a rate of 5° C./min. Native OVA (nOVA) and heat-denatured OVA (dOVA) were tested in the ThT fluorescence assay and in the Plg-activation assay. In the fluorescence assay and in the Plg-activation assay, 25 and 100 μg ml^−1 nOVA and dOVA were tested, respectively. TEM images of nOVA and dOVA were taken to check for the presence of large aggregates.
MSA (#126674, Calbiochem) was dissolved in 8 M urea, 100 mM Tris-HCl pH 8.2, at 10 mg ml^−1 final concentration. Dithiothreitol (DTT) was added to a final concentration of 10 mM. Air was replaced by N2 and the solution was incubated for 2 h at room temperature. Then, the solution was transferred to ice and iodoacetamide was added from a 1 M stock to a final concentration of 20 mM. […] Alkyl-MSA was dialyzed against H2O before use. […] In the ThT-fluorescence assay 25 μg ml^−1 nMSA and alkyl-MSA were tested, and in the Plg-activation assay 100 μg ml^−1 was tested. The presence of aggregates or fibrils was analyzed using TEM.
Lyophilized sterile glucagon was dissolved at 1 mg ml^−1 in H2O with 10 mM HCl. The solution was subsequently kept at 37° C. for 24 h, at 4° C. for 14 days and again at 37° C. for 9 days. […] TEM analysis was performed to assess the presence of large multimeric structures.

Another data set has as its target T4, Fn F4-5 (Homo sapiens, UniProt P02751).
T4 construct: amino-acids NH2—I182-V276-COOH of Fn F4-5; made in house; host or cells: Saccharomyces cerevisiae
Kind of data set: Biacore surface plasmon resonance, binding to immobilized Fn F4-5. The method, then: Binding of cross-β structure containing peptides/proteins was studied using surface plasmon resonance technology with a Biacore 2000 apparatus (Biacore AB, Uppsala, Sweden). A standardized amine coupling procedure was used to couple proteins with F domains to a CM5 chip (Biacore AB, Uppsala, Sweden). First, the dextran surface of the chips was activated by a 35 μl injection with a 1:1 mixture of 0.1 M N-hydroxysuccinimide (NHS) and 0.4 M N-ethyl-N′-(dimethylaminopropyl)carbodiimide (EDC) at a flow rate of 5 μl min.^−1. Then, the proteins were covalently coupled to the activated dextran surface. Remaining activated groups in each of the four flow channels were blocked by injection of 35 μl of 1 M ethanolamine hydrochloride pH 8.5. EDC, NHS and ethanolamine hydrochloride were obtained from Biacore. On one chip, on channels 1 to 4, buffer (reference channel), the soluble extracellular part of receptor for advanced glycation endproducts (sRAGE), tPA and K2P-tPA were immobilized. […] Binding of albumin-AGE was determined with a solution of 3.9 μg ml^−1 albumin-AGE in running buffer. albumin-AGE was filtered on a Millex-GV 0.22 μm filter unit (Millipore). […] Binding of Hb-AGE was also tested after centrifugation for 10 min. at 16,000*g alternative to filtration. tPA activation before and after filtration was assessed with a Plg-activation assay. […]

The test system of a further data set is platelets. As to the kind of experiment: Aggregometric assay with washed platelets. Type of data set: cell-based, human. To be noted: 1 μM. The procedure:
The presence of protein(s) and/or peptide(s) with amyloid-like misfolded protein conformation on activated blood platelets was tested with washed platelets in an aggregometric assay. Freshly drawn human aspirin free blood was mixed gently with citrate buffer to avoid coagulation. Blood was spinned for 15 minutes at 150*g at 20° C. and supernatant was collected; platelet rich plasma (PRP). […] After spinning down the platelets upon centrifugation for 15 minutes at 330*g at 20° C., the pellet was resuspended in HEPES-Tyrode buffer pH 6.5. Prostacyclin was added to a final concentration of 10 ng/ml, and the solution was centrifuged for 15 minutes at 330*g at 20° C., with a soft brake. The pellet was resuspended in HEPES-Tyrode buffer pH 7.2 in a way that the final platelet number was adjusted to 200,000/μl. Platelets were kept at 37° C. for at least 30 minutes, before use in the assays, to ensure that they were in the resting state.
For the aggregometric assays, 400 μl platelet solution was added to a glass tube with 100 μl containing the agonist of interest, fibrinogen and CaCl2. Final concentrations of fibrinogen and CaCl2 were 0.5 mg/ml and 3 mM, respectively. A stirring magnet was added and the apparatus (Whole-blood aggregometer, Chrono-log, Havertown, Pa., USA) was blanked. Aggregation was followed in time by measuring the absorbance of the solution, that will decrease in time upon platelet aggregation. As a positive control, 0.5 U/ml thrombin was used, or TRAP. Aggregation was followed for 10 minutes. Influence of 200 μM Thioflavin T, 200 μM Congo red or 1 μM tPA on platelet aggregation was analyzed.

T4 sequence (P02751 182-276): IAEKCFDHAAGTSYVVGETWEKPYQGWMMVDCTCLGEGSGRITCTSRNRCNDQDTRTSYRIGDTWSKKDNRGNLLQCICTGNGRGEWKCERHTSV
T2 sequence (P00750 36-562): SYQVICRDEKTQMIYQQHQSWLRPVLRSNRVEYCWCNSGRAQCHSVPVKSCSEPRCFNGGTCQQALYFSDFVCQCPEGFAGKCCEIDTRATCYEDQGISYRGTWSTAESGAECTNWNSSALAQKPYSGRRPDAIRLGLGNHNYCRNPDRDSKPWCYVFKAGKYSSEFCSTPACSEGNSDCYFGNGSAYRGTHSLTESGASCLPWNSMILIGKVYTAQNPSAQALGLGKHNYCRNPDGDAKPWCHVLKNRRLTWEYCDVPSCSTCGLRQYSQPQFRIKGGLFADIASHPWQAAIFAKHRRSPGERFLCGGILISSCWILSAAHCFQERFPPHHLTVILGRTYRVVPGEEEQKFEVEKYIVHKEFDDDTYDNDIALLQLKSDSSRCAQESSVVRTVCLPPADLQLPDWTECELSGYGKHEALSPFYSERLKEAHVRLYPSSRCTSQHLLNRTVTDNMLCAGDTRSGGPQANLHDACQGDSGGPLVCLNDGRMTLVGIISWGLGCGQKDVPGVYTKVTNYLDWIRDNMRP
T3 sequence (P02769 25-607): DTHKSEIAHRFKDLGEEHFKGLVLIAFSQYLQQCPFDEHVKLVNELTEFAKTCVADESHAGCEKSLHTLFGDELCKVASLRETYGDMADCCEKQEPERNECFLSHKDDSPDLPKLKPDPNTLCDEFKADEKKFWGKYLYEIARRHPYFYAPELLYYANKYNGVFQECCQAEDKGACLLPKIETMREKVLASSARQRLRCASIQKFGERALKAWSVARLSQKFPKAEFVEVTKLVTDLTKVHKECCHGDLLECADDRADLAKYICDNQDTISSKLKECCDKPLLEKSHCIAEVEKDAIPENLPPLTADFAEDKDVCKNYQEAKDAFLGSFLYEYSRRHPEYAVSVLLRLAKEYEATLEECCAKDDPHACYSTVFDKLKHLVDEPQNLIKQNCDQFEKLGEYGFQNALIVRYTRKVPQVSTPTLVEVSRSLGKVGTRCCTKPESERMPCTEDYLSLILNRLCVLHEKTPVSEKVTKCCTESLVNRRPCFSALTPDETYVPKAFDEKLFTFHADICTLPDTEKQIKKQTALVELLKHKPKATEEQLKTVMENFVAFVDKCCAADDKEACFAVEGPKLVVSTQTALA

In the case of Gelatin, the “enhancement of Congo red fluorescence” value is “enhanced Congo red fluorescence in a storage temperature dependent manner” in data set [1] (stored at 4° C. and 37° C.); “enhanced the fluorescence of Congo red” in data set [1] (stored at the recommended storage temperature of 4° C.). In addition, the “activation of factor XII” value on factor XII (kept at 37° C.) is recorded as “activated factor XII”. The “activation of the factor XII/prekallikrein contact system” value at factor XII (stored at 4° C.) was “not”. On tPA [2], the “binding of tPA” value is “binding of tPA was established”.
Thioflavin S [ThS]: the “influence on binding of LRP cl-IV to BSA-AGE” value in data set [3] is recorded as “inhibit binding of LRP cl-IV to BSA-AGE to a large extent”.
With endostatin, at tPA [4], the tPA activating properties result is “absence of tPA activating properties”. Further, the “binding to the Fn F4-5 doublet” value at Fn F4-5 (Biacore, native Hb at 25 nM) is given as “bound”. For the same substance, at Fn F4-5 (immobilized Fn F4-5, Biacore CM5 chip, read-out: concentration of ligand that results in half maximum binding to Fn F4-5), the Kd was ≤ 800 nM and 800 nM.
tPA: tissue-type plasminogen activator: the “inhibition of thrombin-induced aggregation” value in the data set with platelets was determined as 55%.
